Earlier results, collected in US20210322342A1, “ENDOXIFEN FOR THE TREATMENT OF BIPOLAR I DISORDER” (Jina Pharmaceuticals, Inc., priority 2020, published 2021).

Legend:
PKC = settings: compared to tamoxifen
[1] = for plasma levels of free thyroxin (fT4): use of antipsychotics

| Compound | potency in inhibiting the PKC activity (PKC) | haematological adverse effects ([1]; in vivo) | plasma levels of free thyroxin (fT4) [1] |
| --- | --- | --- | --- |
| CC/C(=C(\c1ccc(O)cc1)c1ccc(OCCNC)cc1)c1ccccc1.O=C(O)CC(O)(CC(=O)O)C(=O)O [Endoxifen, (Z)—1-(4-Hydroxyphenyl)-1-{4-[2-(monomethylamino)ethoxy]phenyl}—2—pheny 1-1-butene citrate] | four-fold higher potency |  |  |
| Cc1cc2c(s1)Nc1ccccc1N=C2N1CCN(C)CC1 [olanzapine] |  | causes neutropenia and thrombocytopenia | significantly lower |
| OCCOCCN1CCN(C2=Nc3ccccc3Sc3ccccc32)CC1 [quetiapine] |  |  | significantly lower |
